Reference: ChEMBL document CHEMBL1201862, “PubChem BioAssay data set” (2004)
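Where inhibition never reached the appropriate level, the endpoint shown equals the highest concentration tested. Otherwise, values were interpolated linearly from a five-concentration, 48-hour dose response in 96-well plates. Here, GI50 denotes the concentration required for 50% inhibition of growth.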 Active and inactive are the calls of the source. Cut-off read from the data, not from the text of the source: active = GI50 up to about 1.1 µM and inactive = higher.

Experiments:
Assay in all cases: DTP human tumour cell line panel, 48 h
LOX IMVI = test system: LOX IMVI
SN12C = test system: SN12C
K562 = test system: K562
IGROV-1 = test system: IGROV-1
Malme-3M = test system: Malme-3M
UACC-62 = test system: UACC-62
SNB-75 = test system: SNB-75
UACC-257 = test system: UACC-257
SK-MEL-28 = test system: SK-MEL-28
HOP-62 = test system: HOP-62
SK-MEL-2 = test system: SK-MEL-2
SF-539 = test system: SF-539
A498 = test system: A498
MCF7 = test system: MCF7
T47D = test system: T47D
DU-145 = test system: DU-145
OVCAR-4 = test system: OVCAR-4
SF-268 = test system: SF-268
SW-620 = test system: SW-620
PC-3 = test system: PC-3

Measured: GI50

C/C1=C\CC/C(C)=C/C=C(/C(C)C)CC/C(C(=O)O)=C/CC1 [CROTOCEMBRANEIC ACID]
inactive: LOX IMVI 54.8 µM | SN12C 45.3 µM | K562 33.9 µM | IGROV-1 61.1 µM | Malme-3M 70.1 µM | UACC-62 25.8 µM | SNB-75 77.3 µM | UACC-257 82.8 µM | SK-MEL-28 > 100 µM | HOP-62 29.6 µM | SK-MEL-2 25.7 µM | SF-539 37.9 µM | A498 21 µM | MCF7 34.2 µM | T47D 23.2 µM | DU-145 61.2 µM | OVCAR-4 55.1 µM | SF-268 72.8 µM | SW-620 42.3 µM | PC-3 40.2 µM
